pIC50: −log10 of the molar value. Read-outs that look alike come from different tables or passages of the source.
What was measured:
[1] = tested on: Wnt/β-catenin pathway; assay: Wnt reporter assay (TCF-Luciferase, Firefly) in DBTRG-05MG cells; type: cell-based; conditions: Homo sapiens, read-out: IC50 value in the reporter assay; for IC50: TCF-Luciferase (Firefly) read out, 24 hours after compound addition, range given with mixed units nM and μM
How it was run: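 DBTRG-05MG cells carrying a 3×(4×TCF)-driven Firefly luciferase reporter, with Renilla also read, were plated 36 h before an 8-point compound dilution series (0.6% DMSO). Lysis and Dual-Luciferase readout followed 24 h after compound addition. Firefly and Renilla were each expressed as % of control and fitted to a four-parameter sigmoid.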

[2] = tested on: DBTRG cells; assay: Soft agar anchorage independent assay; type: cell-based; conditions: 504 h; DBTRG colonies scored 3 weeks after plating; range over the listed examples, given with mixed units nM and μM
Description: DBTRG cells were seeded into a 24-well format in the presence of […] carrier alone or compound (0.6% DMSO (v/v)). Each well is composed of two agar layers: the bottom layer consists of 0.6% Agar while the top has 0.35% Agar plus cells and compound. Cells (2500 per well) were incubated with […] dilution compound the day of the plating and the colonies were scored 3 weeks later after o/n staining with MTT solution. Imaging and counting of the colonies was done with the GelCount™ instrument (Oxford Optronix, UK). For IC50 determination the data were expressed as % of control, values were calculated using XLFit version 4.2, with a four parameters sigmoid 5 function (XLFit model 205).

Structure (SMILES) | IC50 [1] [nM] | IC50 [2] [nM] | pIC50 ([1]; 24 h)
COCC#Cc1ccc2c(n1)n(C[C@H]1CC[C@H](C(=O)Nc3ccncc3)CC1)c(=O)n2C [Example 115] | 35 to 23000 | 32 to 2900 | –
COCCOc1cc2c(cc1F)n(C)c(=O)n2C[C@H]1CC[C@H](c2nnc(-c3cnn(C)c3)o2)CC1 [Example 185] | 35 to 23000 | 32 to 2900 | –
C#Cc1ccc2c(c1)n(C[C@H]1CC[C@H](C(=O)N3CCN(C(C)=O)CC3)CC1)c(=O)n2C [Example 14, 3-[trans-4-(4-Acetyl-piperazine-1-carbonyl)-cyclohexylmethyl]-5-ethynyl-1-methyl-1,3-dihydro-benzoimidazol-2-one] | 35 to 23000 | 32 to 2900 | –
COc1cc2c(cc1F)n(C)c(=O)n2C[C@H]1CC[C@H](C(=O)Nc2ccncc2)CC1 [Example 1, Trans-4-(5-Fluoro-6-Methoxy-3-methyl-2-oxo-2,3-dihydro-benzoimidazol-1-ylmethyl)-cyclohexanecarboxylic acid pyridine-4-ylamide] | 35 to 23000 | 32 to 2900 | –
Cn1c(=O)n(C[C@H]2CC[C@H](C(=O)Nc3ccncc3)CC2)c2cc(OCCN3CCOCC3)ccc21 [Example 152] | 35 to 23000 | 32 to 2900 | –
COc1ccc2c(c1)n(C[C@H]1CC[C@H](C(=O)N3C[C@@H](C)O[C@@H](C)C3)CC1)c(=O)n2C [Example 61] | 35 to 23000 | 32 to 2900 | –
COCCOc1ccc2c(c1)n(C[C@H]1CC[C@H](c3nnc(-c4cnn(C)c4)o3)CC1)c(=O)n2C [Example 147] | 35 to 23000 | 32 to 2900 | –
COCCOc1ccc2c(c1)n(C[C@H]1CC[C@H](C(=O)Nc3ccnnc3)CC1)c(=O)n2C [Example 121] | 35 to 23000 | 32 to 2900 | –
COCCOc1ccc2c(c1)n(C[C@H]1CC[C@H](C(=O)N3CCN(C(C)=O)CC3)CC1)c(=O)n2C [Example 71] | 35 to 23000 | 32 to 2900 | –
Cn1c(=O)n(C[C@H]2CC[C@H](C(=O)Nc3ccncc3)CC2)c2cc(C(F)(F)F)ccc21 [Example 22] | 35 to 23000 | 32 to 2900 | –
COc1cc2c(cc1F)n(C)c(=O)n2C[C@H]1CC[C@H](C(=O)N2CCN(C(C)=O)CC2)CC1 [Example 161] | 35 to 23000 | 32 to 2900 | –
COc1ccc2c(c1)n(C[C@H]1CC[C@H](c3nnc(-c4cnn(C)c4)o3)CC1)c(=O)n2C [Example 106] | 35 to 23000 | 32 to 2900 | –
COCCOc1ccc2c(c1)n(C[C@H]1CC[C@H](C(=O)Nc3ccncc3)CC1)c(=O)n2C [Example 72] | 35 to 23000 | 32 to 2900 | –
COCCOc1cc2c(cc1F)n(C)c(=O)n2C[C@H]1CC[C@H](C(=O)Nc2ccncc2)CC1 [Example 186] | 35 to 23000 | 32 to 2900 | –
CC(=O)N1CCN(C(=O)[C@H]2CC[C@H](Cn3c(=O)n(C)c4ccc(C5CC5)cc43)CC2)CC1 [Example 68] | 35 to 23000 | 32 to 2900 | –
COc1ccc2c(c1)n(C[C@H]1CC[C@H](C(=O)Nc3ccncc3)CC1)c(=O)n2C [Example 29] | 35 to 23000 | 32 to 2900 | –
COc1ccc2c(c1)n(C[C@H]1CC[C@H](c3cc(-c4cnn(C)c4)n[nH]3)CC1)c(=O)n2C [Example 153] | 35 to 23000 | 32 to 2900 | –
COc1cc2c(cc1F)n(C)c(=O)n2C[C@H]1CC[C@H](c2nnc(-c3cnn(C)c3)o2)CC1 [Example 182] | 35 to 23000 | 32 to 2900 | –
COc1ccc2c(c1)n(C[C@H]1CC[C@H](c3nnc(-c4cnc(C)cn4)o3)CC1)c(=O)n2C [Example 128] | 35 to 23000 | – | –
COc1ccc2c(c1)n(C[C@H]1CC[C@H](C(=O)N3CC4CCC(C3)O4)CC1)c(=O)n2C [Example 63] | 35 to 23000 | – | –
CN(C)CCN(C)c1ccc2c(n1)n(C[C@H]1CC[C@H](C(=O)Nc3ccncc3)CC1)c(=O)n2C [Example 5, Trans-4-{5-[(2-Dimethylamino-ethyl)-methyl-amino]-1-methyl-2-oxo-1,2-dihydro-imidazo[4,5-b]pyridin-3-ylmethyl}-cyclohexanecarboxylic acid pyridin-4-ylamide] | – | – | 4.64 to 7.46
COc1ccc2c(c1)n(C[C@H]1CC[C@H](C(=O)N3CCN(c4ccc(C(F)(F)F)nc4)CC3)CC1)c(=O)n2C [Example 90] | 35 to 23000 | – | –
COc1cc2c(cc1F)n(C)c(=O)n2C[C@H]1CC[C@H](C(=O)Nc2ccnnc2)CC1 [Example 169] | 35 to 23000 | – | –

From US20140005164A1, “WNT PATHWAY ANTAGONISTS” (Siena Biotech S.p.A., priority 2011, published 2014)
